Entries after “also recorded” stand apart in the source; their conditions may differ. Where two headings read alike, the source gives them in different places.
Columns and labels:
[1] = cited from earlier work
[2] = old mice; cited from earlier work
[3] = mice, spermidine supplementation; cited from earlier work
[4] = Dahl salt-sensitive rats, high-salt diet, oral supplementation; cited from earlier work
[5] = system: polyamine and acetyl coenzyme A metabolism; assay: Metabolomics analysis of tissues (polyamines, acetyl CoA, TETA metabolites); type: in vivo, mouse; settings: for Acetyl coenzyme A (CoA) levels: liver (FIG. 7C); for Acetyl coenzyme A (CoA) levels / Ratio of N1-acetylspermidine over spermidine (polyamine catabolism): mice upon HFD regimen; for Ratio of N1-acetylspermidine over spermidine (polyamine catabolism): liver, heart or muscle (FIG. 7B)
Procedure: Metabolomics analysis. All standard and reagents used were from Sigma Aldrich except Ammonium carbonate (VWR). For sample preparation, about 30 mg of tissues for each condition were first weighted and solubilized into 1.5 mL polypropylene microcentrifuge tubes with ceramic beads with 1 mL of cold lysate buffer (MeOH/Water/Chloroform, 9/1/1, −20° C.). They were then homogenized three times for 20 s at 5500 rpm using a Precellys 24 tissue homogenator (Bertin Technologies, Montigny-le-Bretonneux, France), followed by a centrifugation (10 min at 15000 g, 4° C.). […] The LC-MS dried extracts were solubilized with 450 μL of MilliQ water and aliquoted in 3 microcentrifuge tubes (100 μL) for each LC method and one microcentrifuge tube for safety. Aliquots for analysis were transferred in LC vials and injected into LC/MS or kept at −80° C. until injection. For sample preparation of polyamines, about 30 mg of tissues for each condition were first weighted and solubilized into 1.5 mL polypropylene microcentrifuge tubes, with 1 mL of cold lysate buffer with 1% sulfosalicylic acid (MeOH /water 1% SSA, 9/1, −20° C.). They were then homogenized three times for 20 s at 5500 rpm using Precellys 24 tissue homogenator (Bertin Technologies, Montigny-le-Bretonneux, France), followed by a centrifugation (10 min at 15000 g, 4° C.). 600 μL of the upper phase of the supernatant was collected and evaporated in microcentrifuge tubes at 40° C. in a pneumatically assisted concentrator (Techne DB3, Staffordshire, UK). The LC-MS dried extracts were solubilized with 300 μL of MilliQ water, centrifugated (10 min at 15000 g, 4° C.), and 50 μL were transferred in polypropylene vial injection for LC method and the rest was transferred in microcentrifuge tube for safety. Aliquots transferred in polypropylene vials were injected into LC/MS or kept at −80° C. until injection. Targeted analysis of CoAs and nucleoside phosphates by ion pairing ultrahigh performance liquid chromatography (UHPLC) coupled to a Triple Quadrupole (QQQ) mass spectrometer was performed on a RRLC 1260 system (Agilent Technologies, Waldbronn, Germany) coupled to a Triple Quadrupole 6410 (Agilent Technologies) equipped with an electrospray source operating in positive mode. The gas temperature was set to 350° C. with a gas flow of 12 L/min. The capillary voltage was set to 3.5 kV.
10 μL of sample were injected on a Column XDB-C18 (100 mm×2.1 mm particle size 1.8 μm) from Agilent technologies, protected by a guard column XDB-C18 (5 mm×2.1 mm particle size 1.8 μm) and heated at 40° C. by a pelletier oven.
The gradient mobile phase consisted of water with 2 mM of DBAA (A) and acetonitrile (B). The flow rate was set to 0.2 mL/min, and gradient as follow: initial condition was 90% phase A and 10% phase B, maintained during 4 min. Molecules were then eluted using a gradient from 10% to 95% phase B over 3 min.

[6] = mice, model of normal tension glaucoma; cited from earlier work
[7] = in vivo; cited from earlier work
[8] = mice; cited from earlier work
[9] = old mice; cited from earlier work; remark: listed apart in the source
[10] = system: invertebrate model organisms; settings: spermidine supplementation; cited from earlier work
[11] = ApoE-/- mice fed a high-fat diet for 20 weeks; cited from earlier work
[12] = mice on a high fat diet; cited from earlier work
Drosophila = settings: cited from earlier work
[13] = patients, long-term (decades) administration; cited from earlier work
[14] = HFD mice, TETA 8 weeks
Procedure: Plasma cytokine measurements. Plasma was harvested from blood collection tubes by centrifugation at 15,000 rpm for 30 min, and stored at −80° C. Cytokines and levels were measured using a mouse serum adipokine immunoassay kit according to the protocol provided by the manufacturer (Cat. # MMHMAG-44K, EMD Millipore, Temecula, Calif., USA).

[15] = system: N-e-acetylated Lysine residues of proteins; assay: Quantitative analysis of protein acetylation in tissues (immunofluorescence); settings: mice
[16] = From the text: Mouse experiments Six-to 7-week-old male WT C57Bl/6 were obtained from Envigo, France. Mice were maintained in specific pathogen-free conditions in a temperature-controlled environment with 12-hr light/12-hr dark cycles and received food and water ad libitum. Animal experiments were in compliance with the EU Directive 63/2010 and protocols 2012_069 and APAFIS #5272-2016042112271931v2 were approved by Ethical Committee of the Gustave Roussy Campus and Cordeliers Research Centre respectively. For weight gain experiments, mice were fed high fat diet (#260HF, Safe, France) or were given 30% sucrose solution in tap water.
[17] = system: autophagy (LC3-I to LC3-II conversion, p62/SQSTM1 degradation); settings: oral administration (not shown)
Procedure: Tissue processing for Immunoblotting. […] Tissue extracts were then centrifuged at 12,000 g at 4° C. and supernatants were collected. Protein concentration in the supernatants was evaluated by the bicinchoninic acid technique (#23225, BCA protein assay kit). Protein extracts were run on 4-12% Bis-Tris acrylamide gels (# NP0322, Thermo Fisher Scientific) and electrotransferred to […] polyvinylidene fluoride (PVDF) membranes (#1620177,Bio-Rad). […] Equal protein loading was monitored by probing membranes with a glyceraldeyde-3-phosphate dehydrogenase (GAPDH)-specific antibody (#2118, Cell Signaling Technology). Membranes were developed with suitable horseradish peroxidase conjugates followed by chemiluminescence-based detection with the Amersham ECL Prime (# RPN2232, GE Healthcare and the ImageQuant LAS 4000 software-assisted imager (GE Healthcare, Piscataway, N.J., USA). Quantification was performed by densitometry by means of Image J software. Autophagy was quantified through evaluation of LC3-II/GAPDH ratio and SQSTM1/GAPDH ratio in accordance to guidelines.

[18] = chronic TETA
Procedure: Glucose and Insulin Tolerance Test. For glucose tolerance test (GTT) mice were fasted O/N for 16 hours. 2.5 g/kg/BW glucose solution in PBS was injected intraperitoneally and blood glucose levels was measured by means of glucometer in tail vein blood. Tail snipping was used to obtain blood. Before snips, the tail end was dipped into Bupivicaine (0.25%) for local anesthesia. For the insulin tolerance test (ITT), mice were starved for 4 hours and a solution of 0.75 U/kg/BW insulin was injected intraperitoneally. Blood glucose is measured at 30, 60, and 120 minutes after glucose or insulin injection.

[19] = mice with excessive weight gain, chronic TETA (not shown)
[20] = mice with excessive weight gain (HFD, sucrose, ob/ob)

NCCCCNCCCN [Spermidine, spermidine]
Cardiac aging ([1]; aging mice, chronic administration): protects from cardiac aging | Diastolic function, left ventricular elasticity, and mitochondrial function ([1]; old mice): improves | Age-induced arterial stiffness [2]: reversed age-induced arterial stiffness | Longevity [3]: extends the longevity | Blood pressure [4]: reduced high blood pressure | Transition to heart failure [4]: delayed the transition to heart failure | N1-acetylspermidine levels ([5]; liver (FIG. 7A) and all mouse organs (data not shown)): increase in N1-acetylspermidine levels | Acetyl coenzyme A (CoA) levels [5]: acetyl coenzyme A (AcCoA) depletion | Acetyl coenzyme A (CoA) levels ([5]; listed as spermidine): reduced acetyl coenzyme A (CoA) levels | Ratio of N1-acetylspermidine over spermidine (polyamine catabolism) [5]: promote polyamine catabolism | Ratio of N1-acetylspermidine over spermidine (polyamine catabolism) ([5]; listed as spermidine): increased the ratio | Spermidine level in organs ([5]; mice, after spermidine administration): increase of this polyamine in most organs except plasma | Retinal degeneration [6]: blunts retinal degeneration | Anticancer immune response [7]: enhance the anticancer immune response | Signs of pathology in experimental autoimmune encephalomyelitis [8]: attenuates signs of pathology | Spatial learning and memory capabilities [9]: improves spatial learning and memory capabilities | Longevity [10]: extends the longevity | Formation of atherosclerotic plaques [11]: alleviated the formation of atherosclerotic plaques | Glucose tolerance [12]: improved | Insulin sensitivity [12]: improved | Weight gain [12]: reduced weigh gain | Age-induced memory impairment (Drosophila): protects from age-induced memory impairment | Loss of locomotor activity (Drosophila): protects from

NCCNCCNCCN [TETA, N,N′-Bis(2-aminoethyl)ethane-1,2-diamine]
Side effects [13]: side effects are mild | Plasma C-peptide [14]: prevented the HFD-induced elevation | Plasma IGFBP1 [14]: prevented the HFD-induced elevation | Plasma adiponectin levels [14]: increased the adiponectin levels | Plasma gastric inhibitory peptide (GIP) [14]: prevented the HFD-induced elevation | Plasma insulin [14]: prevented the HFD-induced elevation | Plasma leptin [14]: prevented the HFD-induced elevation | Plasma plasminogen activator inhibitor-1 (PAI-1) [14]: prevented the HFD-induced elevation | Plasma resistin [14]: prevented the HFD-induced elevation | Protein acetylation in heart (cardiomyocytes) [15]: reduces protein acetylation; also recorded: reduction in protein acetylation | Protein acetylation in liver (hepatocytes) [15]: reduces protein acetylation; also recorded: reduction in protein acetylation | Accumulation of intestinal and perigonadal adipose tissue [16, 19]: reduced accumulation of intestinal and perigonadal adipose tissue | Fat accumulation in the liver [16, 19]: reduced fat accumulation in the liver | Weight gain ([16]; normal mice on a high-fat diet, TETA in drinking water): reduced the accelerated weight gain | Weight gain ([16]; normal mice on a high-sucrose diet (30% sucrose in drinking water), TETA per os 100 mg/kg): reduced the accelerated weight gain | Weight gain ([16]; ob/ob mice): reduced the accelerated weight gain | Weight gain ([16]; wild type mice on standard chow, TETA in drinking water or by gavage): failed to affect the physiological weight gain | Signs of autophagy in several mouse organs [17]: induced signs of autophagy | Glucose tolerance test ([18]; WT mice fed a normal diet): had no effect | Insulin tolerance test ([18]; WT mice fed a normal diet): had no effect | Plasma glucose concentration after intraperitoneal glucose (GTT) [18, 20]: reduced the plasma glucose concentration | Transient decrease in glycemia after injection of insulin (ITT) [18, 20]: enhanced the transient decrease in glycemia
